The results in this text go back to ChEMBL document CHEMBL4828709, “Discovery of 2,4-pyrimidinediamine derivatives as potent dual inhibitors of ALK and HDAC” (Eur J Med Chem, 2021).

The structures appear in SMILES notation. Calls of active or inactive are those of the source.

The test system of data set [1] is MDA-MB-231. As to the kind of experiment: Cell cycle arrest in human MDA-MB-231 cells assessed as accumulation of cells at S phase at 2 uM measured after 24 hrs by PI staining based flowcytometry method (reference value: 20.81%). It counts as functional.
In data set [2] the target is T1, ALK tyrosine kinase receptor (Homo sapiens, UniProt Q9UM73). As to the kind of experiment: Inhibition of human ALK in human SH-SY5Y cells assessed as inhibition of ALK phosphorylation at Tyr1278 residue at 4 uM measured after 24 hrs by Western blot assay. It counts as cell-based. A general note: A western blot detects proteins with antibodies after separation by electrophoresis.

The species named for a further data set is Homo sapiens. The experiment in a line: Inhibition of human CDK at 1 uM.
Data set [3] deals with MDA-MB-231. The experiment in a line: Inhibition of colony formation in human MDA-MB-231 cells at 0.1 to 0.4 uM incubated for 3 days followed by incubation in drug-free medium for 12 days by crystal violet staining based assay. It counts as functional, cell-based. To be noted: dose 0.1-0.4 µM, time 3.0 day.
Data set [4] addresses T1, ALK tyrosine kinase receptor. As to the kind of experiment: Inhibition of ALK in human MDA-MB-231 cells assessed as inhibition of ERK phosphorylation at Thr202/Tyr204 residue measured after 24 hrs by Western blot assay. Format: cell-based. To be noted: dose 1-4 µM.
Data set [5] has as its system MDA-MB-231. The experiment in a line: Induction of apoptosis in human MDA-MB-231 cells assessed as late apoptotic cells at 2 uM measured after 24 hrs by Annexin V-FITC/PI staining based flowcytometry ( Rvb = 5.28%). Format: functional.
Data set [6] deals with MDA-MB-231. The experiment in a line: Cell cycle arrest in human MDA-MB-231 cells assessed as accumulation of cells at G1 phase at 1 uM measured after 24 hrs by PI staining based flowcytometry method (reference value: 55.32%). Format: functional.
In another data set the test system is SH-SY5Y. As to the kind of experiment: Cell cycle arrest in human SH-SY5Y cells assessed as accumulation of cells at S phase at 1 uM measured after 24 hrs by PI staining based flowcytometry method (reference value: 27.69%). It counts as functional.
Data set [7] in a line: Half life in Sprague-Dawley rat at 1 mg/kg, iv measured for 12 hrs by LC-MS/MS analysis. It counts as ADME, organism-based. The settings on record: in vivo.
For the next data set, the system named is HepG2. As to the kind of experiment: Potency index, ratio of ceritinib IC50 to test compound IC50 for human HepG2 cells assessed as inhibition of cell proliferation measured after 72 hrs by CCK8 assay. It counts as functional. A general note: Tetrazolium assays rely on reduction of a dye to a coloured formazan, in cell work by metabolically active cells.

Data set [8] deals with MDA-MB-231. As to the kind of experiment: Induction of apoptosis in human MDA-MB-231 cells assessed as necrotic cells at 1 uM measured after 24 hrs by Annexin V-FITC/PI staining based flowcytometry (reference value: 0.94%). It counts as functional.

T1 sequence (Q9UM73 19-1620 limits assumed): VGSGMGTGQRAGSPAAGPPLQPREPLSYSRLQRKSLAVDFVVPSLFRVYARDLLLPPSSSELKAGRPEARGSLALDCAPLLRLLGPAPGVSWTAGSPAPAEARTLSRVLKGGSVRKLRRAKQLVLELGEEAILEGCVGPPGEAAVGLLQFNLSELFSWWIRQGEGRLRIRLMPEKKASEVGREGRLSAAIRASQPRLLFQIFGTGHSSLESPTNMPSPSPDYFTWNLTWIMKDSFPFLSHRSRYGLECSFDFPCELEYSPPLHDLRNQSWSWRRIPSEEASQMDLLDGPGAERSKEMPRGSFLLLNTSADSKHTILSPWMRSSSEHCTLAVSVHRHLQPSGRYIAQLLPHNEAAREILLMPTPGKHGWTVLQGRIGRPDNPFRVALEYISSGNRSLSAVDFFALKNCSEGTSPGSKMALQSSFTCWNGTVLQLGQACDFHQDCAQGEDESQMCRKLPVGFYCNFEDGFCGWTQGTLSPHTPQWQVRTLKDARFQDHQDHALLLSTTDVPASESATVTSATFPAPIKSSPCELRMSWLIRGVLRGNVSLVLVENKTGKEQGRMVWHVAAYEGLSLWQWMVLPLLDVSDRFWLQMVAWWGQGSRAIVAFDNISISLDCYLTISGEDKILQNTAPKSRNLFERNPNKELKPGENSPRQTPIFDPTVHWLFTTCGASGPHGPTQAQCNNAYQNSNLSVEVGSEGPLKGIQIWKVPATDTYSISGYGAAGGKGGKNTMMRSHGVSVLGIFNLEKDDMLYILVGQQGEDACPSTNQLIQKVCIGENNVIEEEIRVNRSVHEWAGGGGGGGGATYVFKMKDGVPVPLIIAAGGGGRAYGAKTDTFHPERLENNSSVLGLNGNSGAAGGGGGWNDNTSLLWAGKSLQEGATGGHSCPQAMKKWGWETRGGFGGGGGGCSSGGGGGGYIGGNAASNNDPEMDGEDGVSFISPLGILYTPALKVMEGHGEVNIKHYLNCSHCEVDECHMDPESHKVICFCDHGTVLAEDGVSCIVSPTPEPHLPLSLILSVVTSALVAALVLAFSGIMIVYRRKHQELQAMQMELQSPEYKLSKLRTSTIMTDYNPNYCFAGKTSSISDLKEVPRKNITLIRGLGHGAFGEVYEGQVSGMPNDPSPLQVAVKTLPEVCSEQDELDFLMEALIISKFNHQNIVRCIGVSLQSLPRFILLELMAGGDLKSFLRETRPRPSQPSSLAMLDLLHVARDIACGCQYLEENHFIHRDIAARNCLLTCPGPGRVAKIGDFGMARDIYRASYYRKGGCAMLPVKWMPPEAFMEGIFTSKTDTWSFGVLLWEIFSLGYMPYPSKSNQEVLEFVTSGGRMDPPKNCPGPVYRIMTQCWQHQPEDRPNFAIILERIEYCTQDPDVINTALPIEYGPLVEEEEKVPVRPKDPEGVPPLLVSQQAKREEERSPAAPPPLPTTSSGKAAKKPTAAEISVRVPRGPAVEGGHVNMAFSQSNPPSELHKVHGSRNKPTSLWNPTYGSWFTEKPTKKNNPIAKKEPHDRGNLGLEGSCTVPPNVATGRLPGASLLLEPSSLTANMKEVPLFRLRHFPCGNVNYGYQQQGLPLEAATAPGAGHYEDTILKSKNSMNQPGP

By inhibition is commonly meant the change of the read-out against control, counted positive when it falls. As usually defined, the half-life is the time needed for the level to fall by half in the phase considered. Low values mean fast loss, high ones slow loss. Regarding `CC(C)S(=O)(=O)c1ccccc1Nc1nc(Nc2ccc(NC(=O)CCCCCCC(=O)NO)cc2)ncc1Cl`, the Activity is 21.32% in the data set with MDA-MB-231 [1]; 7.72% with MDA-MB-231 [5]; 35.05% with MDA-MB-231 [6]; 18.33% with SH-SY5Y; 1.36% with MDA-MB-231 [8]. Moreover, the inhibition entry (in [2]; with MDA-MB-231 [3]) was “Active” each time. In addition, the figures for the inhibition (in the data set filed under Homo sapiens; in data set [4]) were 95% and “Dose-Dependent Effect”, respectively. Besides, the half-life in data set [7] was 25.2 min. Moreover, the “Ratio IC50” value in the data set with HepG2 came to 3.
